Measured values published in patent EP0093643A1 (priority 1982, dated 1983).

Tests used:
[1] = system: sécrétion gastrique; experiment: Pentagastrin-stimulated gastric hypersecretion in dogs with a Heidenhain pouch; assay type: in vivo, chien; conditions: Canis lupus familiaris, po, voie orale, dog, pentagastrin infusion, dose reducing hourly acid output by 50 %, doses expressed as base, read-out: DE50 (the source's name)
Method: L'activité inhibitrice de la sécrétion gastrique du composé de l'exemple 1 a été comparée à celle du racémique correspondant à l'aide du test d'hypersécrétion gastrique stimulée par la pentagastrine chez le chien porteur d'une poche de Heidenhein.
Trois chiens "mongrels", porteurs d'une poche de Heidenhein, à jeun depuis 18 heures, reçoivent pendant 4 heures, par perfusion veineuse, […]/kg/heure de pentagastrine sous un volume de 30 ml/heure. La sécrétion de la poche est recueillie dans un flacon qui est changé toutes les 15 minutes. Une heure et demie après le début de la perfusion, le produit à étudier est administré par voie orale dans une gélule n° 000. La dose efficace 50 % (DE 50) eet la dose de produit qui diminue de 50 % le débit acide horaire enregistré pendant la 3ème ou 4ème heure de l'expérimentation par rapport au débit acide horaire enregistré lors de la deuxième heure do la perfusion.
Les résultats obtenus sont rassemblés dans le tableau ci-après, où les dosas sont exprimées en produit sous forme de base : […]

[2] = system: récepteurs muscariniques de l'acétylcholine; assay type: binding, rat; conditions: compared with quinupramine; from IC50 of 3H-QNB displacement

Structure (SMILES) | ED50 [1] | activity relative to the corresponding racemate [2]
CN(C)S(=O)(=O)c1ccc2c(c1)N(C1CN3CCC1CC3)c1ccccc1S2 (racemic) [racémique correspondant, reference compound] | 1 mg/kg | 
CN(C)S(=O)(=O)c1ccc2c(c1)N([C@@H]1CN3CCC1CC3)c1ccccc1S2 [Exemple 1, N,N-diméthyl [aza-1 bicyclo(2,2,2)octyl-3(S)] - 10 10 H-phénothiazinesulfonamide-2] | 0.7 mg/kg | 
c1ccc2c(c1)CCc1ccccc1N2[C@@H]1CN2CCC1CC2 [Exemple 2, [aza-1 bicyclo(2,2,2)octyl-3 (S)]-5 dihydro-10,11 5H-dibenz (b,f) azépine] |  | deux fois plus actif
